Reference: patent US20160108381A1, “DNA POLYMERASES AND MUTANTS THEREOF” (LIFE TECHNOLOGIES CORPORATION, priority 2001, published 2016)

Assays:
Test in all cases: Steady-state kinetics, DNA- and RNA-dependent polymerase activity
[1] = target: SuperScript II reverse transcriptase (SSII, SS II RT), a modified M-MLV reverse transcriptase (Moloney murine leukemia virus isolate Shinnick, UniProt P03355); type: biochemical
Experimental: (§1) Thermotoga neapolitana (Tne) DNA polymerase mutated to eliminate 3′ to 5′ and 5′ to 3′ exonuclease activity was cloned, engineered and purified as described in U.S. Pat. No. 6,306,588. SuperScript II reverse transcriptase (SS II RT) was from Invitrogen Corporation, Carlsbad, Calif.
(§2) Steady-state kinetic measurements.
(§3) The catalytic rate constant kcat and the Michaelis constant KM were determined for both the DNA-dependent and RNA-dependent polymerase activities for the polypeptides of the invention and these parameters were compared to those of Tne DNA polymerase enzyme and […]™ II reverse transcriptase. […]

[2] = target: T1, Thermotoga neapolitana (Tne) DNA polymerase, mutated to eliminate 3′ to 5′ and 5′ to 3′ exonuclease activity (Thermotoga neapolitana, UniProt B9K7T2); type: biochemical
T1 construct: mutated to eliminate 3'-5' and 5'-3' exonuclease activity as in US 6,306,588 (recalled, unsure: D137A and D323A)
Experimental: as §1, §2, §3

[3] = target: T2, Clostridium stercorarium DNA polymerase, N-terminal His6 tag (Cst-His), SEQ ID NO:14 (Thermoclostridium stercorarium, UniProt L7VMI6)
T2 sequence (L7VMI6 with tags, fused parts or gaps): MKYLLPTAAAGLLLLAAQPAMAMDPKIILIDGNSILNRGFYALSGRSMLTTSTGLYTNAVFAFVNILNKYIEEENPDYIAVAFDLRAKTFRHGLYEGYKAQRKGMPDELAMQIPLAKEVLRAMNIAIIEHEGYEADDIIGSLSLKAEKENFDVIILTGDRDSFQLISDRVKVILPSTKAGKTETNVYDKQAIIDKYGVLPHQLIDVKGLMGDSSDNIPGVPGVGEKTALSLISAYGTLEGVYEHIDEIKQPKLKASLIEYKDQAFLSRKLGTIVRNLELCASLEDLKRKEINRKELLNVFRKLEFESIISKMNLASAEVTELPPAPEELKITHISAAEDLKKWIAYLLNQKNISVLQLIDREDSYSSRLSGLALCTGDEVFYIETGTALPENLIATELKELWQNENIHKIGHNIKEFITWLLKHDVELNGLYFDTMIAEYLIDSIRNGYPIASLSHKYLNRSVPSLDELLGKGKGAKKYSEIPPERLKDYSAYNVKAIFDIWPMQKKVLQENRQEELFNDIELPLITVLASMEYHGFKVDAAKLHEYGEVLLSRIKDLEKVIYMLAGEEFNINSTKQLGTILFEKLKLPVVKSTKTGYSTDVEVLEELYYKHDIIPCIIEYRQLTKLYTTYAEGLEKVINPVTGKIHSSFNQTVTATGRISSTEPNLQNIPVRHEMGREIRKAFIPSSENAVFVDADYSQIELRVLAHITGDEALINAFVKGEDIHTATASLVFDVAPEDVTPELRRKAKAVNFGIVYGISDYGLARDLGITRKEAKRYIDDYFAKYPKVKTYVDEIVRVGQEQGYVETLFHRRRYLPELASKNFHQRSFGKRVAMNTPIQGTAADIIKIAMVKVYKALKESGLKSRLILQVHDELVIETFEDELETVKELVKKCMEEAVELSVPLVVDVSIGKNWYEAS
Description: Subcloning of genes for Cst and Cth DNA polymerases. In order to improve expression and simplify purification of Cst and Cth DNA polymerase, the genes were subcloned downstream of a T7 promoter and an amino-terminal His6 tag sequence was introduced using Gateway cloning technology (Invitrogen Corporation, Carlsbad, Calif.). The sequence of the DNA oligonucleotide used at the 5′ end of the Cst gene was: 5′-[…] ATAGAC 3′ (SEQ ID NO:37). The sequence of the DNA oligonucleotide used at the 5′ end of the Cth gene was: 5′-[…] […]-3′ (SEQ ID NO:38). The sequence of the DNA oligonucleotide used at the 3′ end of each gene was the same: 5′-[…] […] 3′ (SEQ ID NO:39). Purified pET26B plasmid DNA (Novagen Inc., Madison, Wis.) bearing the gene for Cst or Cth DNA polymerase was amplified by PCR utilizing the primers listed above and Platinum Taq HiFi DNA polymerase (Invitrogen Corporation, Carlsbad, Calif.). PCR products purified by agarose gel electrophoresis were cloned into Gateway vector pDON21 and transferred by recombination into vector pDEST17. […] Each final recombinant plasmid was transformed into the E. coli expression host BL21-AI (Invitrogen Corporation, Carlsbad, Calif.).
Purification of Cst-His and Cth-His DNA polymerases. E. coli cells (BL21AI) bearing the plasmid pDEST17 with the gene for Cst-His or Cth-His DNA polymerase were grown in 2.8-1 Fembach flasks in LB broth containing 50 μg/ml ampicillin at 37° C. After the culture reached an A590 of 1.0, expression of DNA polymerase was induced by the addition of 0.2% arabinose for 3 hr. Cells were harvested by centrifugation and stored at −70° C.
as §2
The assays were conducted in the presence of 1.5 mM MgCl2 at 55° C. for all enzymes except the Caldibacillus cellulovorans CompA.2 enzyme where 2 mM MgCl2 and 45° C. were used.

[4] = Table 34, RNA template, 2 mM MgCl2, 45 °C per footnote
[5] = read-out: Km RNA (dTTP), Table 34, RNA template, 2 mM MgCl2, 45 °C per footnote

T1 sequence (B9K7T2 entry or part of it, stated change not applied): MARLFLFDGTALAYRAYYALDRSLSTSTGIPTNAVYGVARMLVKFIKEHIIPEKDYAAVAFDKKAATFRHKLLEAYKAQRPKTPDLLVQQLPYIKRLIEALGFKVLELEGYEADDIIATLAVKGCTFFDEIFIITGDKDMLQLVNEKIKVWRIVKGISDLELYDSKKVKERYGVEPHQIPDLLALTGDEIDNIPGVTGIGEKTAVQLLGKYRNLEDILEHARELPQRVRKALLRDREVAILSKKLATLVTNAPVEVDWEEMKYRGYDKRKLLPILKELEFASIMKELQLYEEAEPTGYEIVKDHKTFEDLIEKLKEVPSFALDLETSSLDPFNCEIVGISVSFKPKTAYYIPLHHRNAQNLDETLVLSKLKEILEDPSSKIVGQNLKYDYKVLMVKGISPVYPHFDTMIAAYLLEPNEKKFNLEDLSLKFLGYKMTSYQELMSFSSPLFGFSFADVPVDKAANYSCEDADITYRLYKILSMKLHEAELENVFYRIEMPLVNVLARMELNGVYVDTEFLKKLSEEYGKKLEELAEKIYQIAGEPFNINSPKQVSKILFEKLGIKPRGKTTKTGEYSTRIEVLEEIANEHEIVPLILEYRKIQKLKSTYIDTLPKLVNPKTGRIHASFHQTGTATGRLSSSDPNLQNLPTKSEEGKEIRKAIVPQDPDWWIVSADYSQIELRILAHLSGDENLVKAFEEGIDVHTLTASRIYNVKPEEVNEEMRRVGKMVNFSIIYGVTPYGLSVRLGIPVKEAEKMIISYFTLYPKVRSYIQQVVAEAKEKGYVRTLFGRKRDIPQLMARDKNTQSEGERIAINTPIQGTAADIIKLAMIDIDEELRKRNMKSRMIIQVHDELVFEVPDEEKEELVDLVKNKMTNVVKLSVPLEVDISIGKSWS

Cc1cn([C@H]2C[C@H](O)[C@@H](COP(=O)(O)OP(=O)(O)OP(=O)(O)O)O2)c(=O)[nH]c1=O [dTTP]
Kcat RNA (dTTP) [1, 4]: 14.5 s⁻¹ | kCAT Ratio (RNA/DNA) ([1]; Table 40, 37 °C, RNA-DNA with dTTP over DNA-DNA with dGTP): 2.8 | kCAT RNA-DNA ([1]; Table 40, (rA)250•(dT) template-primer, dTTP, 37 °C, mean ± SD): 45 ± 18 s⁻¹ | Km [1, 5]: 17 µM | Kcat RNA (dTTP) [2, 4]: 0.094 s⁻¹ | kCAT Ratio (RNA/DNA) ([2]; Table 40, 72 °C, RNA-DNA with dTTP over DNA-DNA with dGTP): 0.002 | kCAT RNA-DNA ([2]; Table 40, (rA)250•(dT)40, dTTP, 72 °C, mean ± SD): 0.2 ± 0.04 s⁻¹ | Km [2, 5]: 37 µM | Kcat RNA (dTTP) [3, 4]: 19.2 s⁻¹ | kCAT Ratio (RNA/DNA) ([3]; Table 40, dTTP, 55 °C): 2.2 | Km [3, 5]: 76 µM
